Assay results reported in patent publication US20120009280A1, “METHOD OF REDUCING THE RATE OF DEGRADATION OF A BIOLOGICAL MATERIAL” (Bio-Energy Ingredients Limited, priority 2009, published 2012).

Columns and labels:
yeast = assay: Yeast count of spent brewer's / wet distiller's grains stored at ambient temperature; format: cell-based
[1] = pH of suspensions of grain samples in distilled water or PBS; conditions: 1% (w/w) in distilled water
Procedure: The untreated sample (A) was compared visually against the corresponding quicklime-treated sample (B).
On Day 7, 10 g amounts of each sample were suspended in either 90 ml PBS or 90 ml sterile distilled water and shaken for 10 minutes. The pH of each suspension was then measured and compared.
On Day 9, 10 g of each sample was suspended in 90 ml PBS and shaken for 10 minutes. The pH was measured.

total micro-organism = assay: Total microbial (plate) count of spent brewer's / wet distiller's grains stored at ambient temperature; format: cell-based
Outline: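 Spent brewer's grains taken from a brewery discharge line were mixed at the laboratory and treated with powdered commercial calcium oxide containing approximately 94% CaO. Each batch was kept under insect-proof screens at ambient temperature, with no further treatment or agitation. Samples were drawn every seven days, and the entire sample was sent to a microbiological testing facility for total microbial counts.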

[2] = dose 10% w/w, partially de-watered wet distiller's grains, Example 8

For `[Ca+2].[O-]CC(O)CO.[O-]CC(O)CO` [Ca-DGO granules], the “Yeast Count” value (yeast; dose 10% (w/w), week 0) was less than 10 cfu/gram, the “Yeast Count” value (yeast; dose 10% (w/w), week 1) was less than 10 cfu/gram and the “Yeast Count” value (yeast; dose 10% (w/w), week 2) was less than 10 cfu/gram. For the same compound, the “Yeast Count” value (yeast; dose 10% (w/w), week 7) was less than 10 cfu/gram, the “Yeast Count” value (yeast; dose 10% (w/w), week 8) was less than 10 cfu/gram and the “Yeast Count” value (yeast; dose 15% (w/w), week 0) was less than 10 cfu/gram. For the same compound, the “Yeast Count” value (yeast; dose 15% (w/w), week 1) was less than 10 cfu/gram, the “Yeast Count” value (yeast; dose 15% (w/w), week 2) was less than 10 cfu/gram and the “Yeast Count” value (yeast; dose 15% (w/w), week 3) was less than 10 cfu/gram. The “Yeast Count” value (yeast; dose 15% (w/w), week 4) was less than 10 cfu/gram, the “Yeast Count” value (yeast; dose 15% (w/w), week 5) was 30 cfu/gram and the “Yeast Count” value (yeast; dose 15% (w/w), week 6) was less than 10 cfu/gram. The “Yeast Count” value (yeast; dose 15% (w/w), week 7) was less than 10 cfu/gram, the “Yeast Count” value (yeast; dose 15% (w/w), week 8) was less than 10 cfu/gram and the “Yeast Count” value (yeast; dose 15% (w/w), week 9) was less than 10 cfu/gram. It also gave a pH ([1]; dose 10% (w/w), week 0) of 10.2, a pH ([1]; dose 10% (w/w), week 1) of 9.87 and a pH ([1]; dose 10% (w/w), week 2) of 7.09. For the same compound, the pH ([1]; dose 10% (w/w), week 3) was 7.90, the pH ([1]; dose 10% (w/w), week 4) was 8.89 and the pH ([1]; dose 10% (w/w), week 5) was 6.83. It also gave a pH ([1]; dose 10% (w/w), week 6) of 8.93, a pH ([1]; dose 10% (w/w), week 7) of 7.24 and a pH ([1]; dose 10% (w/w), week 8) of 8.63. It also gave a pH ([1]; dose 10% (w/w), week 9) of 8.96, a pH ([1]; dose 15% (w/w), week 0) of 11.53 and a pH ([1]; dose 15% (w/w), week 1) of 11.35. For the same compound, the pH ([1]; dose 15% (w/w), week 2) was 6.61, the pH ([1]; dose 15% (w/w), week 3) was 8.03 and the pH ([1]; dose 15% (w/w), week 4) was 8.54. The pH ([1]; dose 15% (w/w), week 5) was 7.20, the pH ([1]; dose 15% (w/w), week 6) was 9.25 and the pH ([1]; dose 15% (w/w), week 7) was 7.21. The pH ([1]; dose 15% (w/w), week 8) was 9.17, the pH ([1]; dose 15% (w/w), week 9) was 8.95 and the Total plate count (total micro-organism; dose 10% (w/w), week 0) was 80 cfu/gram. The Total plate count (total micro-organism; dose 10% (w/w), week 1) was 510 cfu/gram, the Total plate count (total micro-organism; dose 10% (w/w), week 2) was 3500 cfu/gram and the Total plate count (total micro-organism; dose 10% (w/w), week 4) was 30 cfu/gram. It also gave a Total plate count (total micro-organism; dose 10% (w/w), week 6) of 5400 cfu/gram, a Total plate count (total micro-organism; dose 10% (w/w), week 8) of 410000 cfu/gram and a Total plate count (total micro-organism; dose 10% (w/w), week 9) of 480000 cfu/gram. For the same compound, the Total plate count (total micro-organism; dose 15% (w/w), week 0) was 180 cfu/gram, the Total plate count (total micro-organism; dose 15% (w/w), week 1) was 150 cfu/gram and the Total plate count (total micro-organism; dose 15% (w/w), week 4) was 70 cfu/gram. For the same compound, the Total plate count (total micro-organism; dose 15% (w/w), week 5) was 650 cfu/gram, the Total plate count (total micro-organism; dose 15% (w/w), week 6) was 120 cfu/gram and the Total plate count (total micro-organism; dose 15% (w/w), week 7) was 700 cfu/gram. It also gave a Total plate count (total micro-organism; dose 15% (w/w), week 8) of 270 cfu/gram and a Total plate count (total micro-organism; dose 15% (w/w), week 9) of 150 cfu/gram.

In the case of `[Ca+2].[O-2]` [CaO powder], the “Yeast Count” value (yeast; dose 5% (w/w), week 0) is reported as less than 10 cfu/gram, the “Yeast Count” value (yeast; dose 5% (w/w), week 1) is reported as less than 10 cfu/gram and the “Yeast Count” value (yeast; dose 5% (w/w), week 2) is reported as less than 10 cfu/gram. The “Yeast Count” value (yeast; dose 5% (w/w), week 3) was less than 10 cfu/gram, the “Yeast Count” value (yeast; dose 5% (w/w), week 4) was less than 10 cfu/gram and the “Yeast Count” value (yeast; dose 5% (w/w), week 5) was less than 10 cfu/gram. For the same compound, the “Yeast Count” value (yeast; dose 5% (w/w), week 6) was less than 10 cfu/gram, the “Yeast Count” value (yeast; dose 5% (w/w), week 7) was less than 10 cfu/gram and the “Yeast Count” value (yeast; dose 5% (w/w), week 8) was less than 10 cfu/gram. The “Yeast Count” value (yeast; dose 5% (w/w), week 9) was less than 10 cfu/gram, the “Yeast Count” value (yeast; dose 10% (w/w), week 0) was less than 10 cfu/gram and the “Yeast Count” value (yeast; dose 10% (w/w), week 1) was less than 10 cfu/gram. For the same compound, the “Yeast Count” value (yeast; dose 10% (w/w), week 2) was less than 10 cfu/gram, the “Yeast Count” value (yeast; dose 10% (w/w), week 7) was less than 10 cfu/gram and the “Yeast Count” value (yeast; dose 10% (w/w), week 8) was less than 10 cfu/gram. It also gave a pH ([1]; dose 5% (w/w), week 0) of 12.93, a pH ([1]; dose 5% (w/w), week 1) of 12.05 and a pH ([1]; dose 5% (w/w), week 2) of 11.19. It also gave a pH ([1]; dose 5% (w/w), week 3) of 7.82, a pH ([1]; dose 5% (w/w), week 4) of 9.23 and a pH ([1]; dose 5% (w/w), week 5) of 7.55. The pH ([1]; dose 5% (w/w), week 6) was 9.23, the pH ([1]; dose 5% (w/w), week 7) was 7.28 and the pH ([1]; dose 5% (w/w), week 8) was 7.60. The pH ([1]; dose 5% (w/w), week 9) was 8.45, the pH ([1]; dose 10% (w/w), week 0) was 13.12 and the pH ([1]; dose 10% (w/w), week 1) was 12.56. It also gave a pH ([1]; dose 10% (w/w), week 2) of 12.38, a pH ([1]; dose 10% (w/w), week 3) of 12.36 and a pH ([1]; dose 10% (w/w), week 4) of 12.20. For the same compound, the pH ([1]; dose 10% (w/w), week 5) was 12.12, the pH ([1]; dose 10% (w/w), week 6) was 11.92 and the pH ([1]; dose 10% (w/w), week 7) was 7.56. It also gave a pH ([1]; dose 10% (w/w), week 8) of 8.38, a pH ([1]; dose 10% (w/w), week 9) of 11.77 and a Total plate count (total micro-organism; dose 5% (w/w), week 0) of 640 cfu/gram. For the same compound, the Total plate count (total micro-organism; dose 5% (w/w), week 1) was 1800 cfu/gram, the Total plate count (total micro-organism; dose 5% (w/w), week 2) was 280 cfu/gram and the Total plate count (total micro-organism; dose 5% (w/w), week 3) was 210 cfu/gram. The Total plate count (total micro-organism; dose 5% (w/w), week 4) was less than 10 cfu/gram, the Total plate count (total micro-organism; dose 5% (w/w), week 6) was 40 cfu/gram and the Total plate count (total micro-organism; dose 5% (w/w), week 7) was 900 cfu/gram. It also gave a Total plate count (total micro-organism; dose 5% (w/w), week 8) of 120 cfu/gram, a Total plate count (total micro-organism; dose 5% (w/w), week 9) of 20 cfu/gram and a Total plate count (total micro-organism; dose 10% (w/w), week 0) of 100 cfu/gram. The Total plate count (total micro-organism; dose 10% (w/w), week 1) was 310 cfu/gram, the Total plate count (total micro-organism; dose 10% (w/w), week 2) was 150 cfu/gram and the Total plate count (total micro-organism; dose 10% (w/w), week 3) was 40 cfu/gram. For the same compound, the Total plate count (total micro-organism; dose 10% (w/w), week 4) was 20 cfu/gram, the Total plate count (total micro-organism; dose 10% (w/w), week 6) was less than 10 cfu/gram and the Total plate count (total micro-organism; dose 10% (w/w), week 7) was 300 cfu/gram. For the same compound, the Total plate count (total micro-organism; dose 10% (w/w), week 8) was 80 cfu/gram, the Total plate count (total micro-organism; dose 10% (w/w), week 9) was less than 10 cfu/gram and the “minimum preservation time with total microbial counts <60 cfu/g” value (total micro-organism; [2]) was 2 weeks. For the same compound, the “minimum preservation time with total microbial counts <1000 cfu/g” value (total micro-organism; [2]) was “≧1 year”.
